Measured values: patent publication US8440637B2, “Combination treatment for the treatment of hepatitis C virus infection” (priority 2007, dated 2013)
l = locked nucleic acid (LNA); d = 2'-deoxy (DNA)

Assays:
miR-122 [1] = format: in vivo, mouse
Description: Liver cryo-sections from treated animals were subjected to in situ hybridizations for detection and localization of miR-122 and SEQ ID NO: 61 (FIG. 14). A probe complementary to miR-122 could detect miR-122a. A second probe was complementary to SEQ ID NO: 61. Shown in FIG. 14 is an overlay, in green is distribution and apparent amounts of miR-122a and SEQ ID NO: 61 and blue is DAPI nuclear stain, at 10× magnification. 100× magnifications reveal the intracellular distribution of miR-122a and SEQ ID NO: 61 inside the mouse liver cells.

miR-122 [2] = assay: Genome-wide liver expression profiling, Affymetrix Mouse Genome 430 2.0 arrays; format: in vivo
Description: We carried out genome-wide expression profiling of total RNA samples from saline LNA-antimiR-122 treated and LNA mismatch control treated mice livers 24 hours after the last dose using Affymetrix Mouse Genome 430 2.0 arrays. […] We subsequently examined the 3′ untranslated regions (UTRs) of the differentially expressed mRNAs for the presence of the 6 nt sequence CACTCC, corresponding to the reverse complement of the nucleotide 2-7 seed region in mature miR-122.
Expression profiles of livers of saline and LNA-antimiR treated mice were compared. NMRI female mice were treated with 25 mg/kg/day of LNA-antimiR along with saline control for three consecutive days and sacrificed 24 h, 1, 2 or 3 weeks after last dose. Additionally, expression profiles of livers of mice treated with the mismatch LNA control oligonucleotide 24 h after last dose were obtained. Three mice from each group were analyzed, yielding a total of […] expression profiles. RNA quality and concentration was measured using an Agilent 2100 Bioanalyzer and Nanodrop ND-1000, respectively. Total RNA was processed following the GeneChip Expression 3′-Amplification Reagents One-cycle cDNA synthesis kit instructions (Affymetrix Inc, Santa Clara, Calif., USA) to produce double-stranded cDNA. This was used as a template to generate biotin-labeled cRNA following manufacturer's specifications. Fifteen micrograms of biotin-labeled cRNA was fragmented to strands between 35 and 200 bases in length, of which 10 micrograms were hybridised onto Affymetrix Mouse Genome 430 2.0 arrays overnight in the GeneChip Hybridisation oven 6400 using standard procedures. The arrays were washed and stained in a GeneChip Fluidics Station 450. Scanning was carried out using the GeneChip Scanner 3000 and image analysis was performed using GeneChip Operating Software. Normalization and statistical analysis were done using the LIMMA software package for the R programming environment27. Probes reported as absent by GCOS software in all hybridizations were removed from the dataset. Additionally, an intensity filter was applied to the dataset to remove probes displaying background-corrected intensities below 16. Data were normalized using quantile normalization28. Differential expression was assessed using a linear model method. P values were adjusted for multiple testing using the Benjamini and Hochberg. Tests were considered to be significant if the adjusted p values were p<0.05. Clustering and visualization of Affymetrix array data were done using the MultiExperiment Viewer software29.

[3] = format: in vitro ADME; details: 96 h
Description: LNA oligonucleotide stability was tested in plasma from human or rats (it could also be mouse, monkey or dog plasma). In 45 μl plasma, 5 μl LNA oligonucleotide is added (at a final concentration of 20 μM). The LNA oligonucleotides are incubated in plasma for times ranging from 0 to 96 hours at 37° C.
At the indicated time the sample were snap frozen in liquid nitrogen. 2 μL (equals […]) LNA oligonucleotide in plasma was diluted by adding 15 μL of water and 3 μL 6× loading dye (Invitrogen). As marker a 10 bp ladder (Invitrogen, USA 10821-015) is used. To 1 μl ladder, 1 μl 6× loading and 4 μl water is added. The samples are mixed, heated to 65° C. for 10 min and loaded to a pre-run gel (16% acrylamide, 7 M UREA, 1×TBE, pre-run at 50 Watt for 1 h) and run at 50-60 Watt for […]. Subsequently, the gel is stained with 1× SyBR gold (molecular probes) in 1×TBE for 15 min. The bands were visualised using a phosphoimager from BioRad.
Stability of SEQ ID NO: 61 and SEQ ID NO: 61/miR-122a duplex were tested in mouse plasma at 37° C. over 96 hours. Shown in FIG. 12 is a SYBR-Gold stained PAGE.

[4] = mouse, in vivo
Description: (§1) C57BL/6J female mice were fed on high fat diet for 13 weeks before the initiation of the SEQ ID NO: 63 treatment. […] Both hypercholesterolemic and normal mice were treated i.p. twice weekly with 5 mg/kg SEQ ID NO: 63 and the corresponding mismatch control for a study period of 5½ weeks. Blood samples were collected weekly and total plasma cholesterol was measured during the entire course of the study. Upon sacrificing the mice, liver and blood samples were prepared for total RNA extraction, miRNA and mRNA quantification, assessment of the serum transaminase levels, and liver histology.
Serum from each individual mouse was prepared as follows: Blood samples were stored at room temperature for 2 h before centrifugation (10 min, 3000 rpm at room temperature). After centrifugation, serum was harvested and frozen at −20° C.
ALT and AST measurement was performed in 96-well plates using ALT and AST reagents from ABX Pentra according to the manufacturer's instructions. In short, serum samples were diluted 2.5 fold with H2O and each sample was assayed in duplicate. After addition of 50 μl diluted sample or standard (multical from ABX Pentra) to each well, 200 μl of 37° C. AST or ALT reagent mix was added to each well. Kinetic measurements were performed for 5 min with an interval of 30 s at 340 nm and 37° C. using a spectrophotometer.

miR-122 [5] = assay: Total plasma cholesterol in hypercholesterolemic and normal mice, long-term treatment; format: in vivo, mouse; details: 5 mg/kg i.p. twice weekly
Description: as §1
C57BL/6J female mice (Taconic M&B Laboratory Animals, Ejby, Denmark) were used. All substances were formulated in physiological saline (0.9% NaCl) to final concentration allowing the mice to receive an intraperitoneal injection volume of 10 ml/kg.
In the diet induced obesity study, the mice received a high fat (60EN %) diet (D12492, Research Diets) for 13 weeks to increase their blood cholesterol level before the dosing started. The dose regimen was stretched out to 5½ weeks of 5 mg/kg LNA-antimiR™ twice weekly. Blood plasma was collected once a week during the entire dosing period. After completion of the experiment the mice were sacrificed and RNA extracted from the livers for further analysis. Serum was also collected for analysis of liver enzymes.
Immediately before sacrifice retro-orbital sinus blood was collected in EDTA-coated tubes followed by isolation of the plasma fraction. Total plasma cholesterol was analysed using ABX Pentra Cholesterol CP (Horiba Group, Horiba ABX Diagnostics) according to the manufacturer's instructions.

[6] = liver, 24 hours after the last dose

Substance	miR-122 staining pattern in liver sections (in words) (miR-122 [1]; liver cryo-sections from treated mice versus saline)	intracellular distribution of the oligonucleotide in hepatocytes (in words) (miR-122 [1]; mouse, in vivo)	differentially expressed mRNAs (miR-122 [2]; 24 hours after the last LNA dose)	differentially expressed genes (miR-122 [2]; after one week)	transcripts downregulated (miR-122 [2]; [6])	transcripts upregulated compared to saline and LNA mismatch controls (miR-122 [2]; [6])	differentially expressed genes (miR-122 [2]; three weeks post treatment)	stability in mouse plasma (in words) [3]	ALT level (in words) [4]	alanine and aspartate aminotransferase (ALT and AST) levels compared to saline (in words) [4]	reduction of total plasma cholesterol compared to saline control (miR-122 [5]; hypercholesterolemic mice, after 10 days, sustained during the study)	effect on total plasma cholesterol (in words) (miR-122 [5]; normal diet mice)
5′-ccAttGtcAcaCtcCa-3′ (antisense CCATTGTCACACTCCA; sugars from the 5' end ddlddlddlddlddld, backbone and methylation of C not given here) [SEQ ID NO: 61]	significantly reduced patchy staining pattern	evenly distributed in the entire cytoplasm	509	251	54	455	18	completely stable over 96 hours				
5′-CcAttGTcaCaCtCC-3′ (antisense CCATTGTCACACTCC; sugars from the 5' end ldlddllddldldll, backbone and methylation of C not given here) [SEQ ID NO: 63]									possibly elevated ALT level	No changes	about 30%	not as pronounced
